IC50 data for eight compounds are collected here from ChEMBL document CHEMBL5537151, “Design, synthesis and bioactivity evaluation of novel fusion peptides and their CPT conjugates inducing effective anti-tumor responses on HER2 positive tumors” (Eur J Med Chem, 2024).

A short description of series [1]: Cytotoxicity against HER-negative human MCF-10A cells incubated for 48 hrs by CCK-8 assay. Format: toxicity, cell-based. A general note: Formazan colour is commonly taken as a measure of viable cells.
The next series relates to NCI-N87. Kind of series: cells. The following applies: Homo sapiens, NCI-N87, 48 h.
The test system of the next series is SK-OV-3. As to the kind of experiment: cells. The following applies: Homo sapiens, SK-OV-3, 48 h.
The next series concerns SK-BR-3. As to the kind of experiment: cells. The following applies: Homo sapiens, SK-BR-3, 48 h.
The next series relates to MDA-MB-231. Kind of series: cells. The conditions noted are these: Homo sapiens, MDA-MB-231, 48 h.

pIC50: −log10 of the molar value. Peptide text beside a SMILES is read from it. * marks the point of attachment. X7 = CCC1(OC(=O)CCCCCN2C(=O)CC(SC[C@H](N)C(=O)*)C2=O)C(=O)OCc2c1cc1n(c2=O)Cc2cc3ccccc3nc2-1; X2 = CCC1(OC(=O)CCCCCN2C(=O)CC(*)C2=O)C(=O)OCc2c1cc1n(c2=O)Cc2cc3ccccc3nc2-1; X4 = CCC1(OC(=O)OCCSSC[C@H](N)C(=O)*)C(=O)OCc2c1cc1n(c2=O)Cc2cc3ccccc3nc2-1; X3 = CCC1(OC(=O)CCSSC[C@H](N)C(=O)*)C(=O)OCc2c1cc1n(c2=O)Cc2cc3ccccc3nc2-1; X6 = CCC1(OC(=O)OCCS*)C(=O)OCc2c1cc1n(c2=O)Cc2cc3ccccc3nc2-1; X1 = CCC1(C(=O)OCCS*)C(=O)OCc2c1cc1n(c2=O)Cc2cc3ccccc3nc2-1; X5 = CCC1(OC(=O)CCS*)C(=O)OCc2c1cc1n(c2=O)Cc2cc3ccccc3nc2-1

Description for MDA-MB-231: Cytotoxicity against HER-negative human MDA-MB-231 cells incubated for 48 hrs by CCK-8 assay
Description for NCI-N87: Cytotoxicity against HER-positive human NCI-N87 cells incubated for 48 hrs by CCK-8 assay
Description for SK-BR-3: Cytotoxicity against HER-positive human SK-BR-3 cells incubated for 48 hrs by CCK-8 assay
Description for SK-OV-3: Cytotoxicity against HER-positive human SK-OV-3 cells incubated for 48 hrs by CCK-8 assay

In turn, `CC[C@H](C)[C@H](NC(=O)[C@@H]1CCCN1C(=O)[C@@H](NC(=O)[C@H](C)N)C(C)C)C(=O)N[C@@H](C)C(=O)N[C@@H](CCC(N)=O)C(=O)N[C@@H](CCCCN)C(=O)NCC(=O)N[C@@H](Cc1ccccc1)C(=O)N[C@@H](CC(C)C)C(=O)NCC(=O)N[C@@H](CC(N)=O)C(=O)N1CCC[C@H]1C(=O)N[C@@H](CC(N)=O)C(=O)N[C@@H](Cc1c[nH]c2ccccc12)C(=O)NCC(=O)N[C@@H](CCCNC(=N)N)C(=O)N[C@@H](CO)C(=O)N[C@@H](Cc1c[nH]c2ccccc12)C(=O)N[C@@H](Cc1ccc(O)cc1)C(=O)N[C@@H](CC(N)=O)C(=O)N[C@@H](CCC(N)=O)C(=O)N[C@@H](CCCNC(=N)N)C(=O)N[C@@H](Cc1ccccc1)C(=O)N[C@@H](CCCCNC(=O)[C@@H](N)CSC1CC(=O)N(CCCCCC(=O)OC2(CC)C(=O)OCc3c2cc2n(c3=O)Cc3cc4ccccc4nc3-2)C1=O)C(N)=O` (stereo not given in full) (H-AVPIAQKGFLGNPNWGRSWYNQRFK(X7)-NH2) had an IC50 at 48 h in series [1] greater than 50 µM. The pIC50 with NCI-N87 was 4.62; in the series on SK-OV-3, less than 4.30; in the series on SK-BR-3, 4.90; with MDA-MB-231, 4.50.
In series [1], `CC[C@H](C)[C@H](NC(=O)[C@@H]1CCCN1C(=O)[C@@H](NC(=O)[C@H](C)N)C(C)C)C(=O)N[C@@H](C)C(=O)N[C@@H](CCC(N)=O)C(=O)N[C@@H](CCCCN)C(=O)NCC(=O)N[C@@H](Cc1ccccc1)C(=O)N[C@@H](CC(C)C)C(=O)NCC(=O)N[C@@H](CSC1CC(=O)N(CCCCCC(=O)OC2(CC)C(=O)OCc3c2cc2n(c3=O)Cc3cc4ccccc4nc3-2)C1=O)C(=O)N[C@@H](CC(N)=O)C(=O)N1CCC[C@H]1C(=O)N[C@@H](CC(N)=O)C(=O)N[C@@H](Cc1c[nH]c2ccccc12)C(=O)NCC(=O)N[C@@H](CCCNC(=N)N)C(=O)N[C@@H](CO)C(=O)N[C@@H](Cc1c[nH]c2ccccc12)C(=O)N[C@@H](Cc1ccc(O)cc1)C(=O)N[C@@H](CC(N)=O)C(=O)N[C@@H](CCC(N)=O)C(=O)N[C@@H](CCCNC(=N)N)C(=O)N[C@@H](Cc1ccccc1)C(=O)N[C@@H](CCCCN)C(N)=O` (stereo not given in full) (H-AVPIAQKGFLGC(X2)NPNWGRSWYNQRFK-NH2) had an IC50 at 48 h greater than 50 µM. Also, the pIC50 in the series on NCI-N87 is 4.60; in the series on SK-OV-3, less than 4.30; with SK-BR-3, 4.74; with MDA-MB-231, 4.51.
In turn, `CC[C@H](C)[C@H](NC(=O)[C@@H]1CCCN1C(=O)[C@@H](NC(=O)[C@H](C)N)C(C)C)C(=O)N[C@@H](C)C(=O)N[C@@H](CCC(N)=O)C(=O)N[C@@H](CCCCN)C(=O)NCC(=O)N[C@@H](Cc1ccccc1)C(=O)N[C@@H](CC(C)C)C(=O)NCC(=O)N[C@@H](CSSCCOC(=O)OC1(CC)C(=O)OCc2c1cc1n(c2=O)Cc2cc3ccccc3nc2-1)C(=O)N[C@@H](CC(N)=O)C(=O)N1CCC[C@H]1C(=O)N[C@@H](CC(N)=O)C(=O)N[C@@H](Cc1c[nH]c2ccccc12)C(=O)NCC(=O)N[C@@H](CCCNC(=N)N)C(=O)N[C@@H](CO)C(=O)N[C@@H](Cc1c[nH]c2ccccc12)C(=O)N[C@@H](Cc1ccc(O)cc1)C(=O)N[C@@H](CC(N)=O)C(=O)N[C@@H](CCC(N)=O)C(=O)N[C@@H](CCCNC(=N)N)C(=O)N[C@@H](Cc1ccccc1)C(=O)N[C@@H](CCCCN)C(N)=O` (stereo not given in full) (H-AVPIAQKGFLGC(X6)NPNWGRSWYNQRFK-NH2) displayed an IC50 at 48 h in series [1] of 18.2 µM. The pIC50 with NCI-N87 was 5.52; with SK-OV-3, 5.39; with SK-BR-3 it was 6.07; with MDA-MB-231 it was 5.19.
On to `CC[C@H](C)[C@H](NC(=O)[C@@H]1CCCN1C(=O)[C@@H](NC(=O)[C@H](C)N)C(C)C)C(=O)N[C@@H](C)C(=O)N[C@@H](CCC(N)=O)C(=O)N[C@@H](CCCCN)C(=O)NCC(=O)N[C@@H](Cc1ccccc1)C(=O)N[C@@H](CC(C)C)C(=O)NCC(=O)N[C@@H](CSSCCOC(=O)C1(CC)C(=O)OCc2c1cc1n(c2=O)Cc2cc3ccccc3nc2-1)C(=O)N[C@@H](CC(N)=O)C(=O)N1CCC[C@H]1C(=O)N[C@@H](CC(N)=O)C(=O)N[C@@H](Cc1c[nH]c2ccccc12)C(=O)NCC(=O)N[C@@H](CCCNC(=N)N)C(=O)N[C@@H](CO)C(=O)N[C@@H](Cc1c[nH]c2ccccc12)C(=O)N[C@@H](Cc1ccc(O)cc1)C(=O)N[C@@H](CC(N)=O)C(=O)N[C@@H](CCC(N)=O)C(=O)N[C@@H](CCCNC(=N)N)C(=O)N[C@@H](Cc1ccccc1)C(=O)N[C@@H](CCCCN)C(N)=O` (stereo not given in full) (H-AVPIAQKGFLGC(X1)NPNWGRSWYNQRFK-NH2), for which the IC50 at 48 h in series [1] was 15.1 µM. The pIC50 with NCI-N87 is 5.23; in the series with SK-OV-3, 5.08; in the series on SK-BR-3, 5.59; with MDA-MB-231, 4.97.
Take `CC[C@H](C)[C@H](NC(=O)[C@@H]1CCCN1C(=O)[C@@H](NC(=O)[C@H](C)N)C(C)C)C(=O)N[C@@H](C)C(=O)N[C@@H](CCC(N)=O)C(=O)N[C@@H](CCCCN)C(=O)N[C@@H](CSC1CC(=O)N(CCCCCC(=O)OC2(CC)C(=O)OCc3c2cc2n(c3=O)Cc3cc4ccccc4nc3-2)C1=O)C(=O)NCC(=O)N[C@@H](Cc1ccccc1)C(=O)N[C@@H](CC(C)C)C(=O)NCC(=O)N[C@@H](CC(N)=O)C(=O)N1CCC[C@H]1C(=O)N[C@@H](CC(N)=O)C(=O)N[C@@H](Cc1c[nH]c2ccccc12)C(=O)NCC(=O)N[C@@H](CCCNC(=N)N)C(=O)N[C@@H](CO)C(=O)N[C@@H](Cc1c[nH]c2ccccc12)C(=O)N[C@@H](Cc1ccc(O)cc1)C(=O)N[C@@H](CC(N)=O)C(=O)N[C@@H](CCC(N)=O)C(=O)N[C@@H](CCCNC(=N)N)C(=O)N[C@@H](Cc1ccccc1)C(=O)N[C@@H](CCCCN)C(N)=O` (stereo not given in full) (H-AVPIAQKC(X2)GFLGNPNWGRSWYNQRFK-NH2): in series [1], the IC50 at 48 h is greater than 50 µM. The pIC50 in the series on NCI-N87 is 4.70; in the series with SK-OV-3 it was less than 4.30; with SK-BR-3, 4.80; with MDA-MB-231, 4.55.
On to `CC[C@H](C)[C@H](NC(=O)[C@@H]1CCCN1C(=O)[C@@H](NC(=O)[C@H](C)N)C(C)C)C(=O)N[C@@H](C)C(=O)N[C@@H](CCC(N)=O)C(=O)N[C@@H](CCCCN)C(=O)N[C@@H](CSSCCC(=O)OC1(CC)C(=O)OCc2c1cc1n(c2=O)Cc2cc3ccccc3nc2-1)C(=O)NCC(=O)N[C@@H](Cc1ccccc1)C(=O)N[C@@H](CC(C)C)C(=O)NCC(=O)N[C@@H](CC(N)=O)C(=O)N1CCC[C@H]1C(=O)N[C@@H](CC(N)=O)C(=O)N[C@@H](Cc1c[nH]c2ccccc12)C(=O)NCC(=O)N[C@@H](CCCNC(=N)N)C(=O)N[C@@H](CO)C(=O)N[C@@H](Cc1c[nH]c2ccccc12)C(=O)N[C@@H](Cc1ccc(O)cc1)C(=O)N[C@@H](CC(N)=O)C(=O)N[C@@H](CCC(N)=O)C(=O)N[C@@H](CCCNC(=N)N)C(=O)N[C@@H](Cc1ccccc1)C(=O)N[C@@H](CCCCN)C(N)=O` (stereo not given in full) (H-AVPIAQKC(X5)GFLGNPNWGRSWYNQRFK-NH2), for which half-maximal inhibition in series [1] (IC50 at 48 h) required 22.1 µM. The pIC50 is 5.19 in the series on NCI-N87, 5.24 in the series on SK-OV-3, 5.75 with SK-BR-3 and 4.79 with MDA-MB-231.
The compound `CC[C@H](C)[C@H](NC(=O)[C@@H]1CCCN1C(=O)[C@@H](NC(=O)[C@H](C)N)C(C)C)C(=O)N[C@@H](C)C(=O)N[C@@H](CCC(N)=O)C(=O)N[C@@H](CCCCN)C(=O)NCC(=O)N[C@@H](Cc1ccccc1)C(=O)N[C@@H](CC(C)C)C(=O)NCC(=O)N[C@@H](CC(N)=O)C(=O)N1CCC[C@H]1C(=O)N[C@@H](CC(N)=O)C(=O)N[C@@H](Cc1c[nH]c2ccccc12)C(=O)NCC(=O)N[C@@H](CCCNC(=N)N)C(=O)N[C@@H](CO)C(=O)N[C@@H](Cc1c[nH]c2ccccc12)C(=O)N[C@@H](Cc1ccc(O)cc1)C(=O)N[C@@H](CC(N)=O)C(=O)N[C@@H](CCC(N)=O)C(=O)N[C@@H](CCCNC(=N)N)C(=O)N[C@@H](Cc1ccccc1)C(=O)N[C@@H](CCCCNC(=O)[C@@H](N)CSSCCOC(=O)OC1(CC)C(=O)OCc2c1cc1n(c2=O)Cc2cc3ccccc3nc2-1)C(N)=O` (stereo not given in full) (H-AVPIAQKGFLGNPNWGRSWYNQRFK(X4)-NH2) registered an IC50 at 48 h in series [1] of 15.2 µM. Also, the pIC50 with NCI-N87 was 5.41; in the series on SK-OV-3, 5.21; with SK-BR-3 it was 6.24; in the series on MDA-MB-231 it was 5.33.
The compound `CC[C@H](C)[C@H](NC(=O)[C@@H]1CCCN1C(=O)[C@@H](NC(=O)[C@H](C)N)C(C)C)C(=O)N[C@@H](C)C(=O)N[C@@H](CCC(N)=O)C(=O)N[C@@H](CCCCN)C(=O)NCC(=O)N[C@@H](Cc1ccccc1)C(=O)N[C@@H](CC(C)C)C(=O)NCC(=O)N[C@@H](CC(N)=O)C(=O)N1CCC[C@H]1C(=O)N[C@@H](CC(N)=O)C(=O)N[C@@H](Cc1c[nH]c2ccccc12)C(=O)NCC(=O)N[C@@H](CCCNC(=N)N)C(=O)N[C@@H](CO)C(=O)N[C@@H](Cc1c[nH]c2ccccc12)C(=O)N[C@@H](Cc1ccc(O)cc1)C(=O)N[C@@H](CC(N)=O)C(=O)N[C@@H](CCC(N)=O)C(=O)N[C@@H](CCCNC(=N)N)C(=O)N[C@@H](Cc1ccccc1)C(=O)N[C@@H](CCCCNC(=O)[C@@H](N)CSSCCC(=O)OC1(CC)C(=O)OCc2c1cc1n(c2=O)Cc2cc3ccccc3nc2-1)C(N)=O` (stereo not given in full) (H-AVPIAQKGFLGNPNWGRSWYNQRFK(X3)-NH2) displayed an IC50 at 48 h in series [1] of 28.4 µM. Moreover, the pIC50 was 5.10 in the series on NCI-N87, 5.33 with SK-OV-3, 5.64 in the series with SK-BR-3 and 4.82 with MDA-MB-231.

Usually IC50 stands for the midpoint of a concentration-inhibition curve. One may read the pIC50 as −log10 of the IC50, conventionally taken in molar units. A low value points to a high IC50.
